# Reference: patent US5780642A, “Imidazole derivatives as therapeutic agents” (KNOLL Aktiengesellschaft, priority 1993, dated 1998)
# Where a name gives a salt, the structure may show the parent alone.
# System: Zymosan Stimulated Macrophages (arachidonic acid release)
# Assay: Test A: Inhibition of Arachidonic Acid Release from Zymosan Stimulated Macrophages
# Assay type: cell-based, mouse (female MF1 mice)
# Details: Mus musculus, Macrophage, inhibition of arachidonic acid release, zymosan stimulated mouse peritoneal macrophages; tested at 100, 50, 20, 10, 5 and 1 μM; ≤100 μM considered active; read-out: Test A IC50
# Protocol: Test A was carried out in the following way:
# Inhibition of Arachidonic Acid Release from Zymosan Stimulated Macrophages
# Female MF1 mice (weighing 20 to 25 g) were killed using a rising concentration of CO2. The mice were laid on their backs and the abdomens wiped with 70% alcohol. The skin was pulled back, exposing the peritoneal wall. Medium A (5 ml) (see below) was injected into the peritoneal cavity of each mouse followed by approximately 1 ml of air using a 20 ml syringe and a 21G×40 mm needle in order to form a suspension of macrophage cells. The medium and cells were then removed using a 19G×40 mm needle. The resulting suspension was returned to a sterile beaker kept on ice. The extracts from all the mice were pooled and this pooled cell suspension was counted using a Coulter counter and adjusted to a final cell count of 1-1.3×10^6 cells/ml prior to labelling with [^3 H]-arachidonic acid. Typically five mice provided sufficient cells for each multiwell plate.
# Sufficient [^3 H]-arachidonic acid in ethanol to give a final concentration of 1.6 μCi/ml (equivalent to 40 μCi/plate) was blown to dryness under nitrogen. The arachidonic acid was then resuspended in 1 or 2 ml of the cell suspension which was then mixed with the remainder of the cell suspension in a centrifuge bottle. The labelled cell suspension was then plated out into sterile plastic 96 flat-bottomed well plates (250 μl per well) and incubated overnight at 37° C. in a moist atmosphere of 5% CO2, 95% air.
# The following day, non-adherent cells were removed by washing 3 times with sterile phosphate buffered saline (PBS). The adherent peritoneal macrophages were then cultured for a further 24 hours in the presence or absence of drugs, in medium B (see below) at 37° in a 5% CO2 atmosphere in order to measure the effects of drugs on the spontaneous release of arachidonic acid in the absence of stimulus. After this incubation, supernatants were removed to give media 1 and stored in sealed multi-well plates at 4° C. prior to scintillation counting. Drugs which potentiated spontaneous release of arachidonic acid (125% of controls) were deemed to be toxic at the concentration at which this phenomenon occurred. The supernatants were replaced by fresh medium C containing fresh drug and a stimulus. Three drugs were tested at six concentrations (100, 50, 20, 10, 5 and 1 μM) in replicates of four on each plate. The other wells contained controls consisting of a positive control (e.g. dexamethasone), medium (B) only and medium C only.
# Incubation was then continued for a further 5 hours, whereupon the supernatants were collected to give media 2 and the adherent cells washed with PBS. The cells were then lysed with 100 μl of 0.1% TRITON® X100 in a 0.1% solution of bovine serum albumin in 0.9% saline and mechanically disrupted to give cell lysates. These supernatants (media 2) and cell lysates (Cells) were also stored in sealed multi-well plates at 4° C. prior to scintillation counting. 200 μl aliquots of media, or 100 μl aliquots of cells were counted using 2 ml of OPTIPHASE "HIGH SAFE" (Trademark of LKB) as scintillant.
# The percentage of arachidonic acid released was calculated using the mean values for each group of 4 wells in the following equation. [formula]
# The value for the arachidonic acid release in the absence of stimulus (spontaneous, cpm of media 2) from cells which had been exposed to neither stimulus nor drug was subtracted from all equivalent values (cpm media 2, stimulated with or without drug) to give the net stimulated release. The percentage inhibition of arachidonic acid release caused by a drug may then be calculated using the following equation. [formula]
# Compounds of formula I were tested at six concentrations (100, 50, 20, 10, 5 and 1 μM) and IC50 values calculated. Compounds with IC50 values≤100 μM are considered to be active. Advantageous compounds have an IC50 value<50 μM.
# Medium A (for peritoneal lavage) […]
row,Compound,IC50
1,"CC(C)(NCC(O)Cn1ccnc1)c1ccc(C(=O)NC2CCCCC2)cc1 (stereo not drawn) [Example 48, N-Cyclohexyl-4-{1-[2-hydroxy-3-(imidazol-1-yl)propylamino]-1-methylethyl}benzamide]",70 µM
2,"CC1(C)COC(c2ccc(C(C)(C)NCC(O)Cn3ccnc3)cc2)=N1 (stereo not drawn) [Example 49, 1-{1-[4-(4,4-Dimethyl-2-oxazolin-2-yl)phenyl]-1-methylethylamino}-3-(imidazol-1-yl)propan-2-ol hemihydrate]",70 µM
3,"CSc1ccc(OCC(C)(C)NCC(O)Cn2ccnc2)cc1 (stereo not drawn) [Example 51, 3-(Imidazol-1-yl)-1-[2-(4-methylthiophenoxy)-1,1-dimethylethylamino]propan-2-ol]",87 µM
4,"CC(C)(COc1ccccc1)NCC(O)Cn1ccnc1 (stereo not drawn) [Example 53, 3-(Imidazol-1-yl)-1-(2-phenoxy-1,1-dimethylethylamino) propan-2-ol]",99 µM
5,"COC(=O)CN(CCCn1ccnc1)CCOc1ccc(Cl)cc1 [Example 65, methyl N-[2-(4-chlorophenoxy)ethyl]-N-[3-(imidazol-1-yl)propyl]glycinate]",88 µM
6,"CC(C)(C[S+]([O-])c1ccc(Cl)cc1)NCCCn1ccnc1 (stereo not drawn) [Example 68, N-[2-(4-chlorophenylsulphinyl)-1,1-dimethylethyl]-3-(imidazol-1-yl)propylamine dihydrochloride]",100 µM
7,"Cc1cc(S(=O)(=O)CC(C)(C)NCCCn2ccnc2)c(C)cc1Cl [Example 69, N-[2-(4-chloro-2,5-xylylsulphonyl)-1,1-dimethylethyl]-3-(imidazol-1-yl)propylamine dihydrochloride hemihydrate]",50 µM
8,"CC(C)(CS(=O)(=O)c1ccc(C(C)(C)C)cc1)NCCCn1ccnc1 [Example 70, N-[2-(4-t-butylphenylsulphonyl)-1,1-dimethylethyl]-3-(imidazol-1-yl)-propylamine dihydrochloride]",84 µM
9,"CCCOC(=O)c1ccc(C(C)(C)NCC(O)Cn2ccnc2)cc1 (stereo not drawn) [Example 74, propyl 4-{1-[2-hydroxy-3-(imidazol-1-yl)propylamino]-1-methylethyl}benzoate]",82 µM
10,"CC(C)(COc1ccccc1)NCCCCCn1ccnc1 [Example 75, 5-(imidazol-1-yl)-N-(1,1-dimethyl-2-phenoxyethyl)pentylamine]",26 µM
11,"CC(C)(COC(=O)c1ccccc1)NCCCn1ccnc1 [Example 78, 2-[3-(imidazol-1-yl)propylamino]-2,2-dimethylethyl benzoate dihydrochloride]",92 µM
12,"c1ccc(CCCNCCCCCn2ccnc2)cc1 [Example 81, N-(3-phenylpropyl)-5-imidazol-1-ylpentylamine 0.75 hydrate]",65 µM
13,"CC(C)(NCc1ncc[nH]1)c1ccc(Cl)cc1 [Example 83, 1-(4-chlorophenyl)-N-(imidazol-2-ylmethyl)-1-methylethylamine]",90 µM

# Next, values leading:
row,IC50,Compound
1,25 µM,"CC(C)(NCCCn1ccnc1)c1ccc(Cl)c(NC(=O)c2ccccc2)c1 [Example 73, 2'-chloro-5'-{1-[3-(imidazol-1-yl)propylamino]-1-methylethyl}benzanilide]"
2,24 µM,"OCCN(CCCn1ccnc1)CCOc1ccc(Cl)cc1 [Example 66, 2-{N-[2-(4-chlorophenoxy)ethyl]-N-[3-(imidazol-1-yl)propyl]amino}ethanol]"
3,24 µM,"CCCCS(=O)(=O)Oc1ccc(C(C)(C)NCCCn2ccnc2)cc1 [Example 72, 4-{1-[3-(imidazol-1-yl)propylamino]-1-methylethyl}phenyl 1-butanesulphonate]"
4,23 µM,"CC(C)(COc1ccc(Cl)cc1)NCC(O)Cn1ccnc1 (stereo not drawn) [Example 52, 1-[2-(4-Chlorophenoxy)-1,1-dimethylethylamino]-3-(imidazol-1-yl)propan-2-ol]"
5,23 µM,"CC(C)(NCCCn1ccnc1)c1ccc(OS(=O)(=O)c2ccccc2)cc1 [Example 71, 4-{1-[3-(imidazol-1-yl)propylamino]-1-methylethyl}phenyl benzenesulphonate]"
6,21 µM,"CC(C)(NCCCn1ccnc1)c1ccc(CCNC(=O)c2ccccc2)cc1 [Example 57, N-[2-(4-{1-[3-(imidazol-1-yl)propylamino]-1-methylethyl}phenyl)-ethyl]benzamide]"
7,20 µM,"CCCCNC(=O)NCCc1ccc(C(C)(C)NCCCn2ccnc2)cc1 [Example 58, N-butyl-N'-[2-(4-{1-[3-(imidazol-1-yl)propylamino]-1-methylethyl}phenyl)ethyl]urea]"
8,20 µM,"CCCCS(=O)(=O)Oc1ccc(OCCNCCCn2ccnc2)cc1 [Example 67, 4-{2-[3-(imidazol-1-yl)propylamino]ethoxy}phenyl 1-butane sulphonate]"
9,20 µM,"CC(C)(COC(=O)c1ccc(Cl)cc1)NCCCn1ccnc1 [Example 79, 2-[3-(imidazol-1-yl)propylamino]-2,2-dimethylethyl 4-chlorobenzoate dihydrochloride]"
10,17 µM,"CCCCNCc1cn(CCCNC(C)(C)c2ccc(Cl)cc2)cn1 [Example 82, 3-[4-(butylaminomethyl)imidazol-1-yl]-N-[1-(4-chlorophenyl)-1-methylethyl]propylamine]"
11,16 µM,"CC(C)(COc1ccccc1)NCCCn1cnc(CCNC(=O)c2ccccc2)c1 [Example 76, N-(2-{1-[3-(1,1-dimethyl-2-phenoxyethylamino)-propyl]imidazol-4-yl}ethyl)benzamide]"
12,15 µM,"CC(C)(NCCCc1c[nH]cn1)c1ccc(Cl)cc1 [Example 84, N-[1-(4-chlorophenyl)-1-methylethyl]-3-(imidazol-4(5)-yl)propylamine]"
13,14 µM,"CCC(CC)(NCCCn1cnc(CCNC(=O)c2ccc(C#N)cc2)c1)c1ccccc1 [Example 62, 4-cyano-N-(2-{1-[3-(1-ethyl-1-phenylpropylamino)propyl]imidazol-4-yl}ethyl)benzamide]"
14,14 µM,"CC(C)(NCC(O)Cn1cnc(CCNC(=O)c2ccccc2)c1)c1ccc(Cl)cc1 (stereo not drawn) [Example 63, N-[2-(1-{3-[1-(4-chlorophenyl)-1-methylethylamino]-2-hydroxypropyl}imidazol-4-yl)ethyl]benzamide]"
15,13 µM,"CC(C)(COCc1ccc(Cl)cc1)NCCCn1ccnc1 [Example 80, N-[2-(4-chlorobenzyloxy)-1,1-dimethylethyl]-3-(imidazol-1-yl)propylamine]"
16,12 µM,"CC(C)(COc1ccccc1)NCCCn1cnc(CCNS(=O)(=O)c2ccccc2)c1 [Example 77, N-(2-{1-[3-(1,1-dimethyl-2-phenoxyethylamino)propyl]imidazol-4-yl}ethyl]benzene-sulphonamide]"
17,9 µM,"CCC(CC)(NCCCn1cnc(CCNC(=O)c2ccc(OC)cc2)c1)c1ccccc1 [Example 61, N-(2-{1-[3-(1-ethyl-1-phenylpropylamino)propyl]-imidazol-4-yl}ethyl)-4-methoxybenzamide]"
18,7 µM,"CC(C)(NCCCn1cnc(CCNS(=O)(=O)c2ccccc2)c1)c1ccc(Cl)cc1 [Example 54, N-[2-(1-{3-[1-(4-chlorophenyl)-1-methylethylamino]-propyl}imidazol-4-yl)ethyl]benzenesulphonamide]"
19,7 µM,"CC(C)(NCCCn1cnc(CCNC(=O)c2ccccc2)c1)c1ccc(Cl)cc1 [Example 55, N-[2-(1-(3-[1-(4-chlorophenyl)-1-methylethylamino]propyl}imidazol-4-yl)ethyl]benzamide]"

# Same assay, conditions: Mus musculus, Macrophage, read-out: Test A IC50
row,Compound,IC50
1,"CC(C)(NCCCn1ccnc1)c1ccc(-c2ccc(O)cc2)cc1 [Example 59, 4'-{1-[3-(imidazol-1-yl)propylamino]-1-methylethyl}biphenyl-4-ol]",8 µM
